Drawing on patent publication US8877707B2, “Inhibitors of HCV NS5A” (Presidio Pharmaceuticals, Inc., priority 2010, dated 2014), this text covers EC50 for ten compounds.

The test system of this assay is HCV genotype 1b replicon in Huh 7 cells. Kind of assay: HCV replicon assay (1b_Huh-Luc/Neo-ET cell line, luciferase readout). It counts as cell-based. The conditions noted are these: Hepatitis C virus, Huh-7; HCV 1b replicon; read-out: Inhibition of HCV genotype 1b. In outline:
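Huh 7 cells carrying a bicistronic genotype 1b luciferase replicon were treated with compound in triplicate the day after plating and incubated 72 h. Luciferase activity expressed as % of untreated control; EC50 from a four-parameter logistic fit, repeated several times.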
For orientation: In antiviral work, replicon cells carry a viral genome segment that copies itself.

SMILES strings stand for the structures.

In the case of `COC(=O)N[C@H](C(=O)N1CCC[C@H]1CNC(=O)c1ccc(-c2ccc3cc(-c4cnc([C@@H]5CCCN5C(=O)[C@@H](NC(=O)OC)[C@@H](C)OC)[nH]4)ccc3c2)cc1)[C@@H](C)OC` [compound 572], the EC50 is less than 1 nM.
To `COC(=O)N[C@H](C(=O)N1CCC[C@H]1CNC(=O)c1ccc(-c2ccc3cc(-c4cnc([C@@H]5CCCN5C(=O)[C@@H](NC(=O)OC)C5CCOCC5)[nH]4)ccc3c2)cc1)C1CCOCC1` [compound 573] belongs less than 1 nM.
As for `COC(=O)N[C@H](C(=O)N1CCC[C@H]1CNC(=O)c1ccc2cc(-c3ccc(-c4cnc([C@@H]5CCCN5C(=O)[C@@H](NC(=O)OC)C(C)C)[nH]4)cc3)ccc2c1)C(C)C` [compound 574], the figure is less than 1 nM; as for `COC(=O)N[C@H](C(=O)N1CCC[C@H]1CNC(=O)c1ccc2cc(-c3ccc(-c4cnc([C@@H]5CCCN5C(=O)[C@@H](NC(=O)OC)[C@@H](C)OC)[nH]4)cc3)ccc2c1)[C@@H](C)OC` [compound 575], less than 1 nM.
As for `COC(=O)N[C@@H](C(=O)N1CCC[C@H]1CNC(=O)c1ccc2cc(-c3ccc(-c4cnc([C@@H]5CCCN5C(=O)[C@H](NC(=O)OC)c5ccccc5)[nH]4)cc3)ccc2c1)c1ccccc1` [compound 577], the figure is less than 1 nM; as for `COC(=O)N[C@H](C(=O)N1CCC[C@H]1C(=O)Nc1ccc(-c2ccc3cc(-c4cnc([C@@H]5CCCN5C(=O)[C@@H](NC(=O)OC)[C@@H](C)OC)[nH]4)ccc3c2)cc1)[C@@H](C)OC` [compound 578], less than 1 nM; as for `COC(=O)N[C@H](C(=O)N1CCC[C@H]1c1ncc(-c2ccc3cc(-c4cc5[nH]c([C@@H]6CCCN6C(=O)[C@@H](NC(=O)OC)C(C)C)nc5cc4F)ccc3c2)[nH]1)C(C)C` [compound 700], less than 1 nM.
As for `COC(=O)N[C@H](C(=O)N1CCC[C@H]1c1ncc(-c2ccc3cc(-c4cc5[nH]c([C@@H]6CCCN6C(=O)[C@@H](NC(=O)OC)[C@@H](C)OC)nc5cc4F)ccc3c2)[nH]1)[C@@H](C)OC` [compound 701], the EC50 was less than 1 nM.
Take `COC(=O)N[C@H](C(=O)N1CCC[C@H]1c1ncc(-c2ccc3cc(-c4cc5[nH]c([C@@H]6CCCN6C(=O)[C@@H](NC(=O)OC)C6CCOCC6)nc5cc4F)ccc3c2)[nH]1)C1CCOCC1` [compound 702]: the EC50 is less than 1 nM.
To `CC[C@H](C)[C@H](NC(=O)OC)C(=O)N1CCC[C@H]1c1ncc(-c2ccc3cc(-c4cc5[nH]c([C@@H]6CCCN6C(=O)[C@@H](NC(=O)OC)[C@@H](C)CC)nc5cc4F)ccc3c2)[nH]1` [compound 703] belongs less than 1 nM.
